Test results from patent US9682994B2, “Inhibitors of retroviral replication” (The Scripps Research Institute, priority 2011, dated 2017).
Where two headings read alike, the source gives them in different places.

What was measured:
HIV-1 pNL43 = test: Viral rebound after termination of treatment, chronically infected HeLa-CD4 cells; assay type: cell-based; settings: up to 27 days after stop
From the text: Total RNA was extracted and reverse transcribed with random hexamer primers. The viral mRNA copies were quantified by qPCR and normalized with GAPDH mRNA. Viral mRNA output from untreated cells was assigned as 1. RNA extracts were used in the qPCR as negative control for the presence of genomic DNA contamination, 0.1% of the amplification of the cDNA samples is due to genomic DNA. The error represents a covariance of less than 5%.
FIG. 4B: Same as in FIG. 4A however the treatment was stopped for 27 days before harvest of the cells.

[1] = Mouse mini-PK, plasma levels by LC-MS/MS; assay type: in vivo, C57Bl-6 mice
Method: In vitro studies compared murine and human hepatic microsomes (150 donor mixed male/female pool). […] C57B16 mice were dosed at 10 mg/kg and drug levels were quantitated in plasma at 1, 6, and 24 h by LC-MS/MS (Table 1B).

HIV = test: Viral RNA release from CD4+ T cells of aviremic (HAART) subjects, ultrasensitive RT-PCR; assay type: cell-based, human
Method: All patients provided written informed consent, according to the guidelines of the ethics committee of the Oregon Health and Science University. […] Viral production was measured in the supernatant by a sensitive in-house ELISA specific for the viral capsid protein, p24. […] Viral production was measured by quantification of viral particle-associated RNA by ultra-sensitive two-step quantitative real-time reverse transcription-PCR (RT-qPCR). Briefly, viral particles in the cell culture supernatant were pelleted by centrifugation (60 min, 25000 g at 4° C.). To generate the standard curve, a sample of LAI-HIV with known titer was pelleted in the same run. […]
Total viral RNA was reverse-transcribed into cDNA with gag gene-specific primers (25 pmol each), LM667 and GagR according to manufacturer's instructions (RT-PCR One Step kit—Invitrogen). Pre-amplified products were diluted in DNase-RNase free water, then subjected to quantitative real-time PCR on Rotor-Gene Q (Qiagen) in a reaction 25 pmol of the sense primer Lambda T, 25 pmol of the antisense primer AA55M, and 4 pmol of each hybridization probes (TIB MolBiol).
Total viral RNA (17 μL) was first treated with 1 unit DNase I (Invitrogen) for 10 min at 25° C. followed by DNase I inactivation with 1 μL 25 mM EDTA for 10 min at 65° C. Total viral RNA was then reverse-transcribed into cDNA for quantitative PCR analysis. […]

HeLa-CD4 cells = test: MTT mitochondrial metabolic activity (cell viability); assay type: cell-based
[2] = Hepatic microsomal stability, mouse; assay type: in vitro ADME; settings: 1 μM, 0.2-1 mg/ml microsomes, NADPH 1 mM
HIV-1 pNL4-3 = test: Acute HIV-1 infection, HeLa-CD4-LTR-LacZ reporter CPRG assay; assay type: cell-based
Method: Forty-eight hours post infection a quantitative chlorophenol red-β-D-galactopyranoside (CPRG) assay was performed.
Twenty-four hours later HIV-1 pNL4-3 was added to the cells of both experiment sets (MOI>>10) in the presence of testing compound or DMSO control. CPRG assay performed 48 h later.
HeLa-CD4 cells were infected with HIV-1 pNL4-3 in the presence of the indicated compounds or DMSO. Forty hours post infection a CPRG assay was performed. […] Error bars represent standard deviation.
P42 cells were plated at 1×10^4 cells per well of 96 well. Twenty-four hours later HIV-1 pNL4-3 was added to the wells in the presence of testing compound or DMSO control in a total volume of […] Forty hours post infection cells were disrupted in lysis buffer (60 mM Na2HPO4, 40 mM NaH2PO4, 10 mM KCl, 10 mM MgSO4, 2.5 mM EDTA, 50 mM β-mercaptoethanol, 0.125% Nonidet P-40) and a quantitative chlorophenol red-β-D-galactopyranoside (CPRG)-based (Boehringer Mannheim) assay was performed. The cell extracts were incubated in a reaction buffer (0.9 M phosphate buffer [pH 7.4], 9 mM MgCl2, 11 mM β-mercaptoethanol, 7 mM CPRG) until a red color developed (from approximately 10 min to 4 h) and measured with an LP400 (Becton Dickinson) plate reader at 572 nm. Experiments were performed in triplicate.
Transcription of the HIV-1 provirus is regulated by both viral and cellular transcription factors. Before Tat is produced, low-level basal transcription from the viral promoter is initiated by cellular factors, such as the nuclear factor-kappa B (NF-kB), Sp1, TATA-binding protein and RNAPII. A desirable Tat inhibitor should block Tat-mediated activation of the viral promoter without affecting its basal transcription, which would result in cellular toxicity, given the shared transcription factors of the HIV promoter and cellular genes.

CN(C)[C@H]1C[C@@]23CC[C@@]4(O2)C(=CC[C@]2(C)C(c5ccc6ccncc6c5)=CC[C@H]24)C=C3[C@@H](O)[C@@H]1O [dCA, didehydro-Cortistatin A]
virus rebound after treatment stopped (HIV-1 pNL43): No virus rebound
drug levels relative to the EC50 of cell-based assays ([1]; 1 h after dosing, 10 mg/kg): greater than 1000 fold
plasma drug levels for all mice ([1]; 24 h post dose, 10 mg/kg): above 30 nM
health of mice ([1]; after 24 h treatment, 10 mg/kg): still healthy
bioavailability in mice ([1]; mouse, in vivo): good bioavailability
viability of the cells (HIV; at the concentrations used): did not affect the viability
reduction of viral production (HIV; day 6, in the presence of ARVs, no IL-2): 99.7%
CC50 (HeLa-CD4 cells): 20 µM
CC50 (HeLa-CD4 cells; cultured cell lines or freshly isolated PBLs, read-out: cytotoxic concentration (CC50)): 20 µM
T1/2 hepatic microsomes, Mouse [2]: 3.02 h
maximal inhibition following acute infection (HIV-1 pNL4-3; acute infection): 75-85%
EC50 (HIV-1 pNL4-3; highest MOI, 48 h post infection, read-out: EC50, inhibition of transcription (β-gal activity)): 0.0026 µM
reduction in the EC50 by pre-treatment of cells (HIV-1 pNL4-3; pre-treatment for 24 h prior to infection): 7 fold
reduction of infectivity (HIV-1 pNL4-3; two-day acute infection assay): 75-80%
